The source of these data is US10696677B2 (Research Triangle Institute, priority 2016, dated 2020).

One may read the melting point as the temperature of the solid-liquid transition.

Tested on in one series: not given
Assay: not given
Conditions: not given
`CC1(NC(=O)NC2CCC(F)(F)CC2)CCN(c2ncnc3c2nc(-c2ccccc2Cl)n3-c2ccc(Cl)cc2)CC1` yielded a melting point of 175 to 177 °C.
On the same count and under the same terms, under `O=S(=O)(NC1CCN(c2ncnc3c2nc(-c2ccccc2Cl)n3-c2ccc(OC(F)F)nc2)CC1)c1ccc(F)c(F)c1` [Compound 8, N-{1-[8-(2-Chlorophenyl)-9-[6-(difluoromethoxy)pyridin-3-yl]-9H-purin-6-yl]piperidin-4-yl}-3,4-difluorobenzene-1-sulfonamide] stands 212 to 213 °C; under `O=S(=O)(NC1CCN(c2ncnc3c2nc(-c2ccccc2Cl)n3-c2ccc(C(F)(F)F)nc2)CC1)c1ccc(F)c(F)c1` [Compound 10, N-{1-[8-(2-Chlorophenyl)-9-[6-(trifluoromethyl)pyridin-3-yl]-9H-purin-6-yl]piperidin-4-yl}-3,4-difluorobenzene-1-sulfonamide], 214 to 215 °C.
Same read-out and setting: the same measure for `Cc1cc(-n2c(-c3ccccc3Cl)nc3c(N4CCC(NS(=O)(=O)c5ccc(F)c(F)c5)CC4)ncnc32)no1` [Compound 11, N-{1-[8-(2-Chlorophenyl)-9-(5-methyl-1,2-oxazol-3-yl)-9H-purin-6-yl]piperidin-4-yl}-3,4-difluorobenzene-1-sulfonamide]: 180 to 182 °C; for `Cn1ccc(-n2c(-c3ccccc3Cl)nc3c(N4CCC(NS(=O)(=O)c5ccc(F)c(F)c5)CC4)ncnc32)n1` [Compound 13, N-{1-[8-(2-Chlorophenyl)-9-(1-methyl-1H-pyrazol-3-yl)-9H-purin-6-yl]piperidin-4-yl}-3,4-difluorobenzene-1-sulfonamide]: 206 to 208 °C.
Same read-out and setting: the same measure for `CCCCC(=O)NC1CCN(c2ncnc3c2nc(-c2ccccc2Cl)n3-c2ccc(C(F)(F)F)nc2)CC1` [Compound 14, N-{1-[8-(2-Chlorophenyl)-9-[6-(trifluoromethyl)pyridin-3-yl]-9H-purin-6-yl]piperidin-4-yl}pentanamide]: 192 to 193 °C.
On to `O=C(NCC1CCCCC1)NC1CCN(c2ncnc3c2nc(-c2ccccc2Cl)n3-c2ccc(C(F)(F)F)nc2)CC1` [Compound 16, 3-{1-[8-(2-Chlorophenyl)-9-[6-(trifluoromethyl)pyridin-3-yl]-9H-purin-6-yl]piperidin-4-yl}-1-(cyclohexylmethyl)urea], for which the melting point was 230 to 232 °C.
Still for that read-out and setting: the same measure for `O=C(NCC1CCCCC1)NC1CCN(c2ncnc3c2nc(-c2ccccc2Cl)n3-c2ccc(OC(F)F)nc2)CC1` [Compound 17, 3-{1-[8-(2-Chlorophenyl)-9-[6-(difluoromethoxy)pyridin-3-yl]-9H-purin-6-yl]piperidin-4-yl}-1-(cyclohexylmethyl)urea]: 141 to 143 °C.
Still for that read-out and setting: the same measure for `O=C(Nc1ccccc1F)NC1CCN(c2ncnc3c2nc(-c2ccccc2Cl)n3-c2ccc(C(F)(F)F)nc2)CC1` [Compound 20, 3-{1-[8-(2-Chlorophenyl)-9-[6-(trifluoromethyl)pyridin-3-yl]-9H-purin-6-yl]piperidin-4-yl}-1-(2-fluorophenyl)urea]: 227 to 228 °C.
Turning to `O=C(Nc1ccccc1F)NC1CCN(c2ncnc3c2nc(-c2ccccc2Cl)n3-c2ccc(OC(F)F)nc2)CC1` [Compound 21, 3-{1-[8-(2-Chlorophenyl)-9-[6-(difluoromethoxy)pyridin-3-yl]-9H-purin-6-yl]piperidin-4-yl}-1-(2-fluorophenyl)urea], the melting point lay in the range of 140 to 142 °C.
The same measure, in the same setting: under `O=C(Nc1ccc(F)cc1F)NC1CCN(c2ncnc3c2nc(-c2ccccc2Cl)n3-c2ccc(Cl)cc2)CC1` [Compound 22, 3-{1-[8-(2-Chlorophenyl)-9-(4-chlorophenyl)-9H-purin-6-yl]piperidin-4-yl}-1-(2,4-difluorophenyl)urea] stands 140 to 142 °C; under `O=C(Nc1ccc(C(F)(F)F)nc1)NC1CCN(c2ncnc3c2nc(-c2ccccc2Cl)n3-c2ccc(Cl)cc2)CC1` [Compound 24, 3-{1-[8-(2-Chlorophenyl)-9-(4-chlorophenyl)-9H-purin-6-yl]piperidin-4-yl}-1-[6-(trifluoromethyl)pyridin-3-yl]urea], 140 to 142 °C; under `Cc1cc(NC(=O)N2CCN(c3ncnc4c3nc(-c3ccccc3Cl)n4-c3ccc(Cl)cc3)CC2)no1` [Compound 50], 230 to 231 °C.
Still for that read-out and setting: the same measure for `N#Cc1ccccc1CN1CCN(c2ncnc3c2nc(-c2ccccc2Cl)n3-c2ccc(Cl)cc2)CC1` [Compound 75, 6-[4-(2-Cyanobenzyl)piperazin-1-yl]-8-(2-chlorophenyl)-9-(4-chlorophenyl)-9H-purine]: 127 to 128 °C.
As to `FC(F)(F)c1ccccc1CN1CCN(c2ncnc3c2nc(-c2ccccc2Cl)n3-c2ccc(Cl)cc2)CC1` [Compound 111, 8-(2-Chlorophenyl)-9-(4-chlorophenyl)-6-{4-[2-(trifluoromethyl)benzyl]piperazin-1-yl}-9H-purine], the melting point fell in the range of 119 to 121 °C.
Same read-out and setting: under `Cc1c(CN2CCN(c3ncnc4c3nc(-c3ccccc3Cl)n4-c3ccc(Cl)cc3)CC2)cnn1C` [Compound 114, 8-(2-Chlorophenyl)-9-(4-chlorophenyl)-6-{4-[(1,5-dimethyl-1H-pyrazol-4-yl)methyl]piperazin-1-yl}-9H-purine] stands 138 to 139 °C; under `O=C(NC1CCN(c2ncnc3c2nc(-c2ccccc2Cl)n3-c2ccc(Cl)cc2)CC1)NC1CCC(F)(F)CC1` [Compound 124, 3-{1-[8-(2-Chlorophenyl)-9-(4-chlorophenyl)-9H-purin-6-yl]piperidin-4-yl}-1-(4,4-difluorocyclohexyl)urea], 228 to 229 °C; under `CC1(NC(=O)NC2CCN(c3ncnc4c3nc(-c3ccccc3Cl)n4-c3ccc(Cl)cc3)CC2)CCC(F)(F)CC1` [Compound 126, 3-{1-[8-(2-Chlorophenyl)-9-(4-chlorophenyl)-9H-purin-6-yl]piperidin-4-yl}-1-(4,4-difluoro-1-methylcyclohexyl)urea], 160 to 162 °C.

The test system of the next series is MDCK. The series is described as follows: MDCK BBB Assay. Conditions: MDCK BBB assay. It is filed as in vitro ADME.
Take `O=C(Nc1ccccc1)NC1CCN(c2ncnc3c2nc(-c2ccccc2Cl)n3-c2ccc(Cl)cc2)CC1` [Compound 18, 3-{1-[8-(2-Chlorophenyl)-9-(4-chlorophenyl)-9H-purin-6-yl]piperidin-4-yl}-1-phenylurea]: the “% Permeable” value is 0%.
On the same count and under the same terms, under `Clc1ccc(-n2c(-c3ccccc3Cl)nc3c(N4CCN(c5ccccn5)CC4)ncnc32)cc1` [Compound 67, 8-(2-Chlorophenyl)-9-(4-chlorophenyl)-6-(4-pyridin-2-ylpiperazin-1-yl)-9H-purine] stands 0%; under `COc1ccc(N2CCN(c3ncnc4c3nc(-c3ccccc3Cl)n4-c3ccc(Cl)cc3)CC2)cc1` [Compound 72, 8-(2-Chlorophenyl)-9-(4-chlorophenyl)-6-[4-(4-methoxyphenyl)piperazin-1-yl]-9H-purine], 0%.
Same read-out and setting: under `N#Cc1ccccc1N1CCN(c2ncnc3c2nc(-c2ccccc2Cl)n3-c2ccc(Cl)cc2)CC1` [Compound 74, 2-{4-[8-(2-Chlorophenyl)-9-(4-chlorophenyl)-9H-purin-6-yl]piperazin-1-yl}benzonitrile] stands 0%.
On to `Clc1ccc(CN2CCN(c3ncnc4c3nc(-c3ccccc3Cl)n4-c3ccc(Cl)cc3)CC2)cc1` [Compound 77, 6-[4-(4-Chlorobenzyl)piperazin-1-yl]-8-(2-chlorophenyl)-9-(4-chlorophenyl)-9H-purine], for which the “% Permeable” value is approximately 100%.
